The source of these data is PMC9822014, “Antibacterial Thiopeptide GE2270-Congeners from Nonomuraea jiangxiensis” (Molecules, 2022).

For assay [1], the system named is Staphylococcus aureus Rosenbach (ATCC 25923). The assay can be described thus: Antibacterial microbroth dilution MIC/MBC against S. aureus. The following applies: S. aureus Rosenbach ATCC 25923; for MIC90 / MBC90 (minimal bactericidal concentration) / MBC / MIC: Staphylococcus aureus; for MIC90 / MBC90 (minimal bactericidal concentration) / MBC: ATCC25923; for MBC90 (minimal bactericidal concentration): read-out: MBC (IC90) / minimal bactericidal concentration (MBC90); for MBC: treated culture transferred to new media, read-out: MBC90 [(μM) mean ± SD]; for MIC: ATCC25923, 24 h; for Relative antibacterial activity compared with another compound: 1 versus 2, 9 versus 8. The class given is cell-based. On the procedure:
The minimum inhibition concentration (MIC) and the minimum bactericidal/fungicidal concentration (MBC/MFC) were carried out using the microbroth dilution method according to the Clinical Laboratory Standards Institute (CLSI) guidelines, with some modifications. […] The tested compounds were then incubated together with bacterial cells at 37 °C for 24 h and with fungal spores at 25 °C for 72 h, respectively. The OD600 measurements were subsequentially carried out to evaluate the inhibitory effect of the compounds. To further determine the bactericidal and fungicidal effects of the compounds, 5 µL of the treated culture was transferred onto new media microplates. The plates were incubated under the same condition, followed by the OD600 measurement. […] The cells were then treated with the compounds for 72 h at 37 °C in the presence of 5% CO2. Any Cytotoxic effect was detected with PrestoBlue™ cell viability reagent (ThermoFisher Scientific, Waltham, MA, USA). The cells were read with a fluorescence reading at an excitation of 560 nm and an emission 590 nm. Standard inhibitors, gentamicin (Gibco, Waltham, MA, USA), amphotericin (Sigma-Aldrich, St. Louis, MO, USA) and puromycin (Sigma-Aldrich, St. Louis, MO, USA) were used as the assay controls for the antibacterial, antifungal and cytotoxicity assay. […] GraphPad Prism 8 software (GraphPad, San Diego, CA, USA) was used for the analysis of the bioactivity to determine the respective IC90 and IC50 values.
Background: Dilution methods test growth across graded concentrations, often in twofold steps.

In assay [2] the test system is Clostridium difficile infections. More on the design: method as in PMID 25534727, PMID 22315981. As to conditions: phase 2 clinical trial, humans; cited from earlier work.
Setting [3] is: 37 °C, 24 h, OD600, mean ± SD, triplicates, read-out: MIC90 [(μM) mean ± SD].
The mark [4] stands for this setting: Figure 5, read-out: MIC (IC90) / minimal inhibitory concentration (MIC90).

The structures appear in SMILES notation. ≈ marks a conversion by molar mass, not a printed value. Entries after “also recorded” stand apart in the source; their conditions may differ. Read-outs that look alike come from different tables or passages of the source. A value given as a limit tells only on which side of the number the result lay.

For the compound `CNC(=O)CC1NC(=O)c2csc(n2)-c2ccc(-c3nc(C4=NC(C(=O)N5CCCC5C(=O)O)CO4)cs3)nc2-c2csc(n2)-c2csc(n2)C(C(O)c2ccccc2)NC(=O)CNC(=O)c2csc(n2)C(C(C)C)NC(=O)c2nc1sc2C` (centres unmarked) [Compound 2, GE2270F2], the “Antibacterial activity against S. aureus (in words)” value (shortened to “Antibacterial activity … (in words)”) in assay [1] is listed as “displayed activities”. Also, the MIC90 came to 6.94 ± 0.83 µM (≈ 8.66 µg/mL) in assay [1] (setting [3]) and 6.94 µM (≈ 8.66 µg/mL) in assay [1] (setting [4]). In addition, in assay [1] (Figure 5), the MBC90 (minimal bactericidal concentration) was 67.9 µM (≈ 84.7 µg/mL). The MBC in assay [1] (OD600, mean ± SD, triplicates) stood at 67.9 ± 1.55 µM (≈ 84.7 µg/mL).
On to `CNC(=O)C[C@@H]1NC(=O)c2csc(n2)-c2ccc(-c3nc(C(=O)N[C@@H](CO)C(=O)N4CCC[C@H]4C(N)=O)cs3)nc2-c2csc(n2)-c2csc(n2)[C@H]([C@@H](O)c2ccccc2)NC(=O)CNC(=O)c2nc(sc2COC)[C@H](C(C)C)NC(=O)c2nc1sc2C` [Compound 6], for which the “Antibacterial activity … (in words)” value in assay [1] is “displayed activities; also recorded: demonstrated antibacterial activity”. Further, in assay [1] (setting [4]), the MIC lay within 2 to 11 µM (≈ 2.62 to 14.4 µg/mL) and the MIC90 stood at 7.07 µM (≈ 9.25 µg/mL). The MIC90 in assay [1] (setting [3]) stood at 7.07 ± 0.55 µM (≈ 9.25 µg/mL).
For `CNC(=O)C[C@@H]1NC(=O)c2csc(n2)-c2ccc(-c3nc(C(=O)OC)cs3)nc2-c2csc(n2)-c2csc(n2)[C@H]([C@@H](O)c2ccccc2)NC(=O)CNC(=O)c2csc(n2)[C@H](C(C)C)NC(=O)c2nc1sc2C` [Compound 7], in assay [1], the “Antibacterial activity … (in words)” value is “displayed activities”. The figures for the MIC90 in assay [1] (setting [3]) and in assay [1] (setting [4]) were 4.71 ± 0.37 µM (≈ 5.16 µg/mL) and 4.71 µM (≈ 5.16 µg/mL), respectively. Moreover, the MBC90 (minimal bactericidal concentration) in assay [1] (Figure 5) was 12.4 µM (≈ 13.6 µg/mL). Further, the MBC in assay [1] (OD600, mean ± SD, triplicates) was determined as 12.4 ± 1.06 µM (≈ 13.6 µg/mL).
As for `CNC(=O)CC1NC(=O)c2csc(n2)-c2ccc(-c3nc(C4=NC(C(=O)N5CCCC5C(=O)O)CO4)cs3)nc2-c2csc(n2)-c2csc(n2)C(C(O)c2ccccc2)NC(=O)CNC(=O)c2csc(n2)C(C(C)C)NC(=O)c2csc1n2` (centres unmarked) [Compound 3, GE2270F3], in assay [1], the “Antibacterial activity … (in words)” value is “inactive; also recorded: no bioactivity”. In assay [1] (setting [4]), the MIC was 2 to 11 µM (≈ 2.47 to 13.6 µg/mL). For the same compound, the MIC90 in assay [1] (setting [3]) and in assay [1] (setting [4]) was greater than 70 µM throughout. Besides, in assay [1] (Figure 5), the MBC90 (minimal bactericidal concentration) was greater than 70 µM. For the same compound, the MBC in assay [1] (OD600, mean ± SD, triplicates) was greater than 70 µM.
As to `CNC(=O)C[C@@H]1NC(=O)c2csc(n2)-c2ccc(-c3nc(C(=O)N[C@@H](CO)C(=O)N4CCC[C@H]4C(N)=O)cs3)nc2-c2csc(n2)-c2csc(n2)[C@H]([C@@H](O)c2ccccc2)NC(=O)CNC(=O)c2csc(n2)[C@H](C(C)C)NC(=O)c2nc1sc2C` [Compound 5], the “Antibacterial activity … (in words)” value in assay [1] is “inactive”. In addition, in assay [1] (setting [4]), the MIC was 2 to 11 µM (≈ 2.53 to 13.9 µg/mL) and the MIC90 is greater than 70 µM. Besides, in assay [1] (setting [3]), the MIC90 is greater than 70 µM. Further, the MBC90 (minimal bactericidal concentration) in assay [1] (Figure 5) was greater than 70 µM. Further, the MBC in assay [1] (OD600, mean ± SD, triplicates) is greater than 70 µM.
For the compound `CNC(=O)C[C@@H]1NC(=O)c2csc(n2)-c2ccc(-c3nc(C(=O)O)cs3)nc2-c2csc(n2)-c2csc(n2)[C@H]([C@@H](O)c2ccccc2)NC(=O)CNC(=O)c2nc(sc2COC)[C@H](C(C)C)NC(=O)c2nc1sc2C` [Compound 9], in assay [1], the “Antibacterial activity … (in words)” value is on record as “displayed activities” and the “Relative antibacterial activity compared with another compound” value is given as “at least a three-fold reduction”. Moreover, in assay [1] (setting [3]), the MIC90 worked out at 10.3 ± 0.75 µM (≈ 11.6 µg/mL). Moreover, the MBC90 (minimal bactericidal concentration) in assay [1] (Figure 5) amounted to 52 µM (≈ 58.5 µg/mL). Moreover, the MIC90 in assay [1] (setting [4]) is 10.3 µM (≈ 11.6 µg/mL). For the same compound, the MBC in assay [1] (OD600, mean ± SD, triplicates) was determined as 52 ± 1.41 µM (≈ 58.5 µg/mL).
`CNC(C)C1CCC(N)C(OC2C(N)CC(N)C(OC3OCC(C)(O)C(NC)C3O)C2O)O1` (centres unmarked) [Gentamicin, gentamicin, reference compound]: the MIC90 in assay [1] (setting [3]) turned out to be 0.04 ± 0.01 µM (≈ 0.0191 µg/mL); in assay [1] (setting [4]), 0.04 µM (≈ 0.0191 µg/mL). In assay [1] (Figure 5), the MBC90 (minimal bactericidal concentration) came out at 0.1 µM (≈ 0.0478 µg/mL). Moreover, the MBC in assay [1] (OD600, mean ± SD, triplicates) is 0.1 ± 0.01 µM (≈ 0.0478 µg/mL).
On to `CNC(=O)C[C@@H]1NC(=O)c2csc(n2)-c2ccc(-c3nc(N(CCCCC(=O)O)C(=O)O[C@H]4CC[C@H](C(=O)O)CC4)cs3)nc2-c2csc(n2)-c2csc(n2)[C@H]([C@@H](O)c2ccccc2)NC(=O)CNC(=O)c2nc(sc2COC)[C@H](C(C)C)NC(=O)c2nc1sc2C` [LFF571], for which, in assay [2], the “Recurrence rates versus vancomycin” value is listed as “higher recurrence rates than conventional antibiotics treatment with vancomycin”.
As for `CNC(=O)CC1NC(=O)c2csc(n2)-c2ccc(-c3nc(C4=NC(C(=O)N5CCCC5C(=O)O)CO4)cs3)nc2-c2csc(n2)-c2csc(n2)C(C(O)c2ccccc2)NC(=O)CNC(=O)c2nc(sc2COC)C(C(C)C)NC(=O)c2nc1sc2C` (centres unmarked) [Compound 1, GE2270F1], in assay [1], the “Antibacterial activity … (in words)” value was “displayed activities” and the “Relative antibacterial activity compared with another compound” value was “three-fold more active”. Besides, in assay [1] (setting [4]), the MIC was 2.63 µM (≈ 3.4 µg/mL) and the MIC90 stood at 2.63 µM (≈ 3.4 µg/mL). The MIC90 in assay [1] (setting [3]) worked out at 2.63 ± 0.12 µM (≈ 3.4 µg/mL). Besides, the MBC90 (minimal bactericidal concentration) in assay [1] (Figure 5) amounted to 18.5 µM (≈ 23.9 µg/mL). Besides, the MBC in assay [1] (OD600, mean ± SD, triplicates) stood at 18.5 ± 1.34 µM (≈ 23.9 µg/mL).
For `CNC(=O)C[C@@H]1NC(=O)c2csc(n2)-c2ccc(-c3nc(C(=O)OC)cs3)nc2-c2csc(n2)-c2csc(n2)[C@H]([C@@H](O)c2ccccc2)NC(=O)CNC(=O)c2nc(sc2COC)[C@H](C(C)C)NC(=O)c2nc1sc2C` [Compound 8], the “Antibacterial activity … (in words)” value in assay [1] was “displayed activities”. Moreover, in assay [1] (setting [4]), the MIC was found to be 3.17 µM (≈ 3.61 µg/mL) and the MIC90 turned out to be 3.17 µM (≈ 3.61 µg/mL). In addition, in assay [1] (setting [3]), the MIC90 came out at 3.17 ± 0.28 µM (≈ 3.61 µg/mL). In assay [1] (Figure 5), the MBC90 (minimal bactericidal concentration) came to 16.2 µM (≈ 18.5 µg/mL). Besides, in assay [1] (OD600, mean ± SD, triplicates), the MBC is 16.2 ± 1.48 µM (≈ 18.5 µg/mL).
Turning to `CNC(=O)CC1NC(=O)c2csc(n2)-c2ccc(-c3nc(C4=NC(C(=O)N5CCCC5C(=O)O)CO4)cs3)nc2-c2csc(n2)-c2csc(n2)C(C(O)c2ccccc2)NC(=O)CNC(=O)c2nc(sc2COC)C(C(C)C)NC(=O)c2csc1n2` (centres unmarked) [Compound 4, GE2270F4], the “Antibacterial activity … (in words)” value in assay [1] was “inactive; also recorded: no bioactivity”. In assay [1] (setting [4]), the MIC fell in the range of 2 to 11 µM (≈ 2.56 to 14.1 µg/mL) and the MIC90 was greater than 70 µM. Further, the MIC90 in assay [1] (setting [3]) was greater than 70 µM. Further, in assay [1] (Figure 5), the MBC90 (minimal bactericidal concentration) is greater than 70 µM. For the same compound, the MBC in assay [1] (OD600, mean ± SD, triplicates) was greater than 70 µM.
